Experiments:
[1] = system: miR-203 and miR-542-3p expression levels; test: qRT-PCR (TaqMan miRNA assays) of miRNA levels after mimic transfection; format: cell-based, human; details: SKBR3.B3.1 and SKBR3.B3.2 cells, 24 hrs, normalized to RNU6B, vs control mimic
Text: (§1) FIGS. 1A-B. Transfection of the mimics of miR-203 and/or miR-542-3p dramatically increases their expression levels and specifically down-regulates Survivin, but not other functionally related molecules, such as Mcl-1 and Bcl-xL. SKBR3.B3.1 and […] cells were transfected with either control miRNA mimic, or miR-203 mimic, or miR-542-3p mimic alone, or the combination of miR-203 and miR-542-3p mimics for 24 hrs. (FIG. 1A) Cells were collected and subjected to total RNA extraction, inclusive of the small RNA fraction. The expression levels of miR-203 and miR-542-3p were measured by qRT-PCR using TaqMan miRNA assays. All results were normalized with the internal control RNU6B. Bars, SD. […] (FIG. 1B) Cells were collected and subjected to western blot analyses with specific antibodies directed against Survivin, Mcl-1, Bcl-xL, or β-actin. The densitometry analyses of Survivin signals were shown underneath, and the arbitrary numbers indicate the intensities of each cell line relative to controls, defined as 1.0.
Analysis of miRNA expression. […] The expression levels of miR-203 and miR-542-3p were then measured by quantitative real-time (qRT)-PCR using TaqMan MicroRNA Assays (Assay ID: 000507 and 001284, respectively; Applied Biosystems). […] The relative miRNA levels were calculated using the comparative Ct method (AACt) as reported (Howe et al., 2011). […]

Survivin [2] = test: Western blot of Survivin protein after miRNA mimic transfection in erbB2+ breast cancer cells; format: cell-based, human; details: mimic transfection 24 hrs
Text: as §1
MDA-MB-453 and BT474 cells (FIG. 2A), and BT474-HR20 cells (FIG. 2B) were transfected with either control miRNA mimic, or miR-203 mimic, or miR-542-3p mimic alone, or the combination of miR-203 and miR-542-3p mimics for 24 hrs. Cells were then collected and subjected to western blot analyses with specific antibodies directed against Survivin, Mcl-1, Bcl-xL, or β-actin. The densitometry analyses of Survivin signals were shown underneath, and the arbitrary numbers indicate the intensities of each cell line relative to controls, defined as 1.0.
(§2) Transfection of cells with miRNA mimic. Cell transfection with the miRIDIAN miRNA mimics or negative controls was carried out using HiPerFect Transfection Reagent (QIAGEN) according to the manufacturer's protocol.
(§3) Western blot analysis. Protein expression levels were determined by western blot analysis as described previously (Wang et al., 2010; Huang et al., 2009; Huang et al., 2011). Equal amounts of total cell lysates were boiled in Laemmli SDS-sample buffer, resolved by SDS-PAGE, transferred to nitrocellulose membrane (Bio-Rad Laboratories, Hercules, Calif.), and probed with the primary antibodies described in the figure legends. After the blots were incubated with horseradish peroxidase-labeled secondary antibody, the signals were detected using the enhanced chemiluminescence reagents (GE Healthcare Bio-Sciences Corp., Piscataway, N.J.).

Mcl-1 = test: Western blot of Mcl-1 protein after miRNA mimic transfection; format: cell-based, human; details: SKBR3.B3.1 and SKBR3.B3.2 cells, mimic transfection 24 hrs
Text: as §1, with “The densitometry analyses of Survivin signals were shown underneath, and the arbitrary numbers indicate the intensities of each cell line relative to controls, defined as 1.0.” left out
(§4) Western blot analysis. Protein expression levels were determined by western blot analysis as described previously (Wang et al., 2010; Huang et al., 2009; Huang et al., 2011). […] After the blots were incubated with horseradish peroxidase-labeled secondary antibody, the signals were detected using the enhanced chemiluminescence reagents (GE Healthcare Bio-Sciences Corp., Piscataway, N.J.).

Bcl-xL = test: Western blot of Bcl-xL protein after miRNA mimic transfection; format: cell-based, human; details: SKBR3.B3.1 and SKBR3.B3.2 cells, mimic transfection 24 hrs
Text: as §1, with “The densitometry analyses of Survivin signals were shown underneath, and the arbitrary numbers indicate the intensities of each cell line relative to controls, defined as 1.0.” left out
as §4

[3] = system: PARP cleavage and caspase-3 activation; test: Western blot of PARP cleavage and cleaved caspase-3 after mimic transfection plus paclitaxel; format: cell-based, human; details: SKBR3.B3.1 and SKBR3.B3.2 cells, mimic 24 hrs then paclitaxel 24 hrs; for paclitaxel-induced PARP cleavage and caspase-3 activation (cleaved caspase-3): vs paclitaxel alone in control mimic transfection
Text: (FIGS. 3A-B) SKBR3.B3.1 and SKBR3.B3.2 cells were transfected with either control miRNA mimic, or miR-203 mimic, or miR-542-3p mimic alone, or the combination of miR-203 and miR-542-3p mimics for 24 hrs. Cells were then untreated or treated with paclitaxel for another 24 hrs. Cells were collected and subjected to western blot analyses of PARP, cleaved caspase-3 (C-Caps-3), β-actin (FIG. 3A), or a specific apoptotic ELISA (FIG. 3B). C & D, BT474-HR20 cells were transfected with either control miRNA mimic, or miR-203 mimic, or miR-542-3p mimic alone, or the combination of miR-203 and miR-542-3p mimics for 24 hrs. Cells were then untreated or treated with paclitaxel for another 24 hrs. Cells were collected and subjected to western blot analyses of PARP, cleaved caspase-3 (C-Caps-3), or β-actin (FIG. 3C), or a specific apoptotic ELISA (FIG. 3D).
as §2, §3

HCC cells = details: expression of miR-203 in HCC cells lacking their expression; cited from earlier work
Survivin [4] = details: cells transfected with miR-542-3p mimics vs negative control-transfected cells; cited from earlier work
[5] = system: cancer cell proliferation; details: ectopic expression; through G1 and G2/M cell cycle arrest; cited from earlier work
18rRNA = details: overexpression of miR-542-3p; cited from earlier work
[6] = system: Src-transformed fibroblasts and human cancer cells; details: ectopic expression in Src-transformed fibroblasts and human cancer cells; cited from earlier work
[7] = MDA-MB-453, BT474 and BT474-HR20 cells
[8] = SKBR3.B3.1 and SKBR3.B3.2 cells, vs control mimic

## miR-203: miRIDIAN miRNA specific mimic of miR-203 (sequence GUGAAAUGUUUAGGACCACUAG, MIMAT0000264), purchased from Thermo Scientific Dharmacon (commercial miRIDIAN mimic, chemistry not given here)
[1]
  expression levels of miR-203 and/or miR-542-3p following mimic(s) transfection: dramatically increased
Survivin [2]; [7]
  protein levels of Survivin: able to down-regulate Survivin
Survivin [2]; [8]
  protein levels of Survivin: clearly reduced the protein levels of Survivin
Mcl-1
  effect on MCl-1 protein: no effect
Bcl-xL
  effect on BCl-xL protein: no effect
[3]
  paclitaxel-induced PARP cleavage and caspase-3 activation (cleaved caspase-3): clearly enhanced paclitaxel-induced PARP cleavage
HCC cells
  cell growth: inhibited cell growth

## miR-542-3p: miRIDIAN miRNA specific mimic of miR-542-3p (sequence UGUGACAGAUUGAUAACUGAAA, MIMAT0003389), purchased from Thermo Scientific Dharmacon (commercial miRIDIAN mimic, chemistry not given here)
[1]
  expression levels of miR-203 and/or miR-542-3p following mimic(s) transfection: dramatically increased
Survivin [2]; [7]
  protein levels of Survivin: able to down-regulate Survivin
Survivin [2]; SKBR3.B3.1 and SKBR3.B3.2 cells
  inhibition on Survivin compared with the other single mimic: more profound inhibition on Survivin than miR-203
Survivin [2]; [8]
  protein levels of Survivin: clearly reduced the protein levels of Survivin
Mcl-1
  effect on MCl-1 protein: no effect
Bcl-xL
  effect on BCl-xL protein: no effect
[3]
  enhancement of paclitaxel-induced PARP cleavage and caspase-3 activation compared with the other single mimic: more profound effects than miR-203
  paclitaxel-induced PARP cleavage and caspase-3 activation (cleaved caspase-3): clearly enhanced paclitaxel-induced PARP cleavage
Survivin [4]
  gene down-regulation in microarray analysis: most down-regulated candidate gene was Survivin
[5]
  cancer cell proliferation: inhibited cancer cell proliferation
18rRNA
  18rRNA levels: significantly decreased
[6]
  tumor growth: suppresses tumor growth

From patent publication US20140051744A1, “Markers For Assessing the Susceptibility of Cancer to Survivin-Targeting miRNA Treatment” (The Regents of the University of Colorado, A Body Corporate, priority 2012, published 2014)
